Results taken from patent US11963520B2, “Transgenic mouse expressing human cereblon” (Celgene Corporation, priority 2016, dated 2024).

Columns and labels:
Format in all cases: cell-based, mouse
Ikaros = assay: Ex vivo compound treatment of splenocytes, western blot of Ikaros degradation (Ikaros versus GAPDH)
Procedure: (§1) For example, degradation of CRBN substrate (e.g., Aiolos, Ikaros, or GSPT1) was evaluated by ex vivo compound treatment of splenocytes isolated from the human CRBN transgenic mice. Spleens from wild type (WT), heterozygous (HET), and homozygous human CRBN knock-in mice (HOM) were collected and dissociated in 5 mL PBS using gentleMACS™ Dissociator (Miltenyi Biotec, San Diego, CA). Spleen homogenates were filtered using 70 μm pre-separation filters (#130-095-823, Miltenyi Biotec) into 15-mL conical tubes and centrifuged at 1200 rpm for 5 min. After decanting, splenocytes were re-suspended in 1 mL of ACK Lysing Buffer (Gibco #A10492-01, Thermo Fisher Scientific, Waltham, MA) for 2 min. to lyse red blood cells. Ten mL of cold PBS was added to each conical tube to stop lysis, and splenocytes were again centrifuged at 1200 rpm for 5 min. After decanting, splenocytes were re-suspended in 1 mL PBS, filtered again, and pooled for each mouse phenotype to count and determine viability using Vi-Cell™ XR cell counter (Beckman Coulter, Indianapolis, IN). After counting and viability check, tubes with pooled splenocytes were centrifuged at 1200 rpm for 5 min., decanted, and resuspended in warm RPMI 1640 media supplemented with 10% FBS at a concentration of 5.5×10^6 splenocytes/mL (20-30 mL depending on number of splenocytes).
(§2) 15×10^6 WT, HET, or HOM splenocytes were plated in wells of separate 6-well plates. Compounds diluted in DMSO (final concentration 0.2%)/RPMI 1640 media were dispensed into wells at concentrations ranging from 10 μM to 1 nM. 0.2% DMSO was also dispensed in one well of each plate as a negative control. Splenocytes were treated with compounds from 4 to 24 hrs in incubators at 37° C. Compound-treated splenocytes were then collected in 15 mL conical tubes, centrifuged at 1500 rpm for 6 mins, media aspirated off, and washed once with 5 mL PBS. After washing, splenocytes were again centrifuged, PBS was aspirated off, and splenocyte pellets were flash frozen on dry ice.
(§3) Splenocyte pellets were lysed using cold 1× cell lysis buffer (#9803, Cell Signaling Technology, Danvers, MA), supplemented with cOmplete ULTRA protease inhibitor tablet (#05892920001, Roche Diagnostics Corporation, Indianapolis, IN) and phosphatase inhibitors (Pierce #78442, Thermo Fisher Scientific, Waltham, MA). Protein concentration of lysates was determined using BCA Protein Assay Kit (Pierce #A10492-01, Thermo Fisher Scientific, Waltham, MA) and western blots were run to evaluate substrate degradation resulting from ex vivo compound treatment. Twenty microgram of each splenoctye lysate was loaded onto 4-12% Criterion XT Bis Tris gels (Bio-Rad #3450124, Bio-Rad Laboratories, Hercules, CA) and run at 130 V for 1.5 hr and then transferred onto nitrocellulose membranes using Trans-Blot Turbo Transfer System (Bio-Rad Laboratories). After 1 hr of blocking in Odyssey® Blocking buffer (#927-40100, LI-COR Biotechnology, Lincoln, NE), membranes were incubated with primary antibodies for Aiolos (polyclonal goat, #sc-18683, Santa Cruz Biotechnology, Dallas, TX), Ikaros (monoclonal rabbit, #14859, Cell Signaling Technology), GSPT-1 (polyclonal rabbit, #ab49878, Abcam PLC, Cambridge, United Kingdom), GAPDH (monoclonal mouse, #AM4300, Thermo Fisher Scientific) overnight at 4° C. After washing in PBST, membranes were probed with a fluorescent secondary antibody, Alexa Fluor 680® goat anti-rabbit IgG (Invitrogen #A-21076, Thermo Fisher Scientific) or IRDye® 800CW goat anti-mouse IgG (#926-32210, LI-COR Biotechnology), for 1 hr at room temperature. Following incubation with secondary antibodies, membranes were again washed in PBST. Membranes were scanned using Odyssey® CLx Imaging System (LI-COR Biotechnology) and quantified using Image Studio™ software.
(§4) A second ex vivo experiment using splenocytes from WT, HET, and HOM mice was conducted to study the dose dependency of Aiolos or Ikaros degradation in response to a range of Compound B concentrations. […]

Aiolos = assay: Ex vivo compound treatment of splenocytes, western blot of Aiolos degradation (Aiolos versus GAPDH)
Procedure: as §1, §2, §3, §4

GSPT1 = assay: Ex vivo compound treatment of splenocytes, western blot of GSPT1 degradation (GSPT1 versus GAPDH); conditions: 4 hr ex vivo
Procedure: as §1, §2
as §3, with “software. […]” for “software.”

[1] = HET and HOM splenocytes, 1 μM or 10 μM, 24 hrs ex vivo
[2] = HET splenocytes, 0.001 μM, 6 hr ex vivo
[3] = HET splenocytes, 0.01 μM, 6 hr ex vivo
[4] = HET splenocytes, 0.1 μM, 6 hr ex vivo
[5] = HET splenocytes, 1 μM, 6 hr ex vivo
[6] = HET splenocytes, 1 μM, 24 hr ex vivo
[7] = HOM splenocytes, 0.001 μM, 6 hr ex vivo
[8] = HOM splenocytes, 0.01 μM, 6 hr ex vivo
[9] = HOM splenocytes, 0.1 μM, 6 hr ex vivo
[10] = HOM splenocytes, 1 μM, 6 hr ex vivo
[11] = HOM splenocytes, 1 μM, 24 hr ex vivo
[12] = WT splenocytes, 1 μM or 10 μM, 24 hrs ex vivo
[13] = WT splenocytes, 1 μM, 24 hr ex vivo
[14] = WT splenocytes, 10 μM, 24 hr ex vivo
[15] = WT splenocytes, any concentration (1, 0.1, 0.01, 0.001 μM), 6 hr ex vivo

SMILES: O=C1CC[C@H](N2Cc3c(OCc4ccc(CN5CCOCC5)cc4)cccc3C2=O)C(=O)N1 (stereo in doubt) [Compound B, 3-(4-((4-(morpholinomethyl)benzyl)oxy)-1-oxoisoindolin-2-yl)piperidine-2,6-dione]
- degradation of Ikaros (in words) (Ikaros; [1]): significant degradation
- degradation of Ikaros (Ikaros; [2]): 0%
- degradation of Ikaros (Ikaros; [3]): 8%
- degradation of Ikaros (Ikaros; [4]): 45%
- degradation of Ikaros (Ikaros; [5]): 49%
- degradation of Ikaros (Ikaros; [6]): 60%
- degradation of Ikaros (Ikaros; HET splenocytes, 10 μM, 24 hr ex vivo): 68%
- degradation of Ikaros (Ikaros; [7]): 14%
- degradation of Ikaros (Ikaros; [8]): 41%
- degradation of Ikaros (Ikaros; [9]): 55%
- degradation of Ikaros (Ikaros; [10]): 59%
- degradation of Ikaros (Ikaros; [11]): 76%
- degradation of Ikaros (Ikaros; HOM splenocytes, 10 μM, 24 hr ex vivo): 82%
- degradation of Ikaros (in words) (Ikaros; [12]): only minimal degradation
- degradation of Ikaros (Ikaros; [13]): 23%
- degradation of Ikaros (Ikaros; [14]): 20%
- degradation of Ikaros (in words) (Ikaros; [15]): no degradation
- degradation of Aiolos (Aiolos; HET (heterozygous human CRBN knock-in) splenocytes, 10 μM, 24 hr ex vivo): 77%
- degradation of Aiolos (in words) (Aiolos; [1]): significant degradation
- degradation of Aiolos (Aiolos; [2]): 0%
- degradation of Aiolos (Aiolos; [3]): 13%
- degradation of Aiolos (Aiolos; [4]): 32%
- degradation of Aiolos (Aiolos; [5]): 41%
- degradation of Aiolos (Aiolos; [6]): 76%
- degradation of Aiolos (Aiolos; HOM (homozygous human CRBN knock-in) splenocytes, 10 μM, 24 hr ex vivo): 84%
- degradation of Aiolos (Aiolos; [7]): 28%
- degradation of Aiolos (Aiolos; [8]): 54%
- degradation of Aiolos (Aiolos; [9]): 66%
- degradation of Aiolos (Aiolos; [10]): 78%
- degradation of Aiolos (Aiolos; [11]): 81%
- degradation of Aiolos (in words) (Aiolos; [12]): only minimal degradation
- degradation of Aiolos (Aiolos; [13]): 28%
- degradation of Aiolos (Aiolos; [14]): 27%
- degradation of Aiolos (in words) (Aiolos; [15]): no degradation

SMILES: Cc1ccc(NC(=O)NCc2ccc3c(c2)CN(C2CCC(=O)NC2=O)C3=O)cc1Cl (stereo not drawn) [Compound C, 1-(3-chloro-4-methylphenyl)-3-((2-(2,6-dioxopiperidin-3-yl)-1-oxoisoindolin-5-yl)methyl)urea]
- degradation of GSPT1 (GSPT1; HOM splenocytes, 1 nM): 65%
- degradation of GSPT1 (GSPT1; HOM splenocytes, 100 nM): 89%
- degradation of GSPT1 (in words) (GSPT1; HOM splenocytes): significant degradation
- degradation of GSPT1 (GSPT1; WT splenocytes, 1 nM): 11%
- degradation of GSPT1 (GSPT1; WT splenocytes, 100 nM): 7%
- degradation of GSPT1 (in words) (GSPT1; WT splenocytes): only minimal degradation

SMILES: O=C1CCC(N2Cc3cc(CNC(=O)C(F)(F)c4ccc(F)cc4)ccc3C2=O)C(=O)N1 (stereo not drawn) [Compound E, 2-(4-flurophenyl)-N-((2-(2,6-dioxopiperidin-3-yl)-1-oxoisoindolin-5-yl)methyl)-2,2-difluoroacetamide]
- degradation of GSPT1 (GSPT1; HOM splenocytes, 100 nM): 70%
- degradation of GSPT1 (GSPT1; HOM splenocytes, 10 μM): 74%
- degradation of GSPT1 (in words) (GSPT1; HOM splenocytes): significant degradation
- degradation of GSPT1 (GSPT1; WT splenocytes, 100 nM): 0%
- degradation of GSPT1 (GSPT1; WT splenocytes, 10 μM): 6%
